# Test results: US12018278B2, “Methods for chemically induced lineage reprogramming” (BeiHao Stem Cell and Regenerative Medicine Research …, priority 2017, dated 2024)
# B1: GDNF: growth factor in Stage 2 neural induction medium, 20 ng/ml (protein, UniProt P39905 78-211, looked up)
# Glial cell line-derived …: SPDKQMAVLPRRERNRQAAAANPENSRGKGRRGQRGKNRGCVLTAIHLNVTDLGLGYETKEELIFRYCSGSCDAAETTYDKILKNLSRNRRLVSDKVGQACCRPIAFDDDLSFLDDNLVYHILRKHSAKRCGCI
# Key:
# [1] = tested on: induced TauEGFP-positive cells; assay: Whole-cell patch clamp recordings on induced TauEGFP-positive neurons; assay type: cell-based, mouse; details: for spontaneous excitatory postsynaptic currents (EPSCs): 20 μM CNQX plus 50 μM AP5, after co-culturing with primary astrocytes
# Experimental: Whole-cell patch clamp recordings were performed as previously described (Li et al., Cell Stem Cell, 17:195-203 (2015)). The artificial cerebrospinal fluid extracellular solution contained (in mM) 141 NaCl, 2.5 KCl, 1.3 MgCl2, 2.4 CaCl2, 1.25 NaH2PO4, 10 glucose and 10 HEPES, the pH was adjusted to 7.4 with NaOH. Patch pipettes were pulled (˜5 MΩ tip resistance) with a P97 micropipette puller (Sutter Instruments) filled with internal pipette solution contained (in mM) 140 potassium gluconate, 1 CaCl2, 10 EGTA, 2 MgCl2, 5 Na2ATP, and 10 HEPES, the pH was adjusted to 7.4 with KOH. Patch-clamp recordings were taken using an EPC-10 amplifier (HEKA) with PatchMaster. Cell membrane potentials were held typically at −80 mV and depolarized to test potentials from −80 to +80 mV in 10 mV increments to record the sodium and potassium currents. The sample was 20 μs and sweep intervals were 2 s. For current-clamp recordings, a hyperpolarized current was injected into chemical neurons to membrane potentials around −70 mV. Action potentials were elicited by step-depolarized currents with sweep intervals of 3 s. The cells were held at 0 pA to record the resting membrane potentials. In current-clamp mode, the sample frequency was 25 kHz. Induced neurons identified by GFP were co-cultured with mouse primary astrocytes to record spontaneous excitatory postsynaptic currents (sEPSCs) or spontaneous inhibitory postsynaptic currents (sIPSCs). The induced neurons were held at a holding potential of −70 mV (close to the reversal potential of chloride) and 0 mV, respectively. The data were continuously digitized at 20 kHz. For neurotransmitter response, Glutamate (100 μM, Sigma-Aldrich) was dissolved in ACSF, loaded into a pipette, and puffed onto hciN cells using a picosprizer III (Parker Instrument) with 10 psi and […]. All recordings were conducted at room temperature.
# [2] = tested on: mouse adult lung fibroblasts (MAFs); assay: Induction of XEN-like cells from adult fibroblasts; assay type: cell-based; details: vitamin C (50 μg/ml) and CH55 (1 μM) added together to stage 1 medium; 12 days' induction
# Experimental: (§1) Stage 1 culture medium preparation: KnockOut DMEM (Invitrogen) supplemented with 10% KSR (Invitrogen), 10% FBS (Pan-Biotech), 1% GlutaMAX™-I (Invitrogen), 1% NEAA (Invitrogen), 0.055 mM β-ME (Sigma), 1% penicillin-streptomycin (Invitrogen), 100 ng/ml bFGF (Origene) containing the small-molecule cocktail: 0.5 mM VPA, 2-4 μM TD114-2 or 20 μM CHIR, 10 μM 616452, 10 μM Tranylcypromine, 10-50 μM Forskolin, 0.05 μM AM580 and 5 μM EPZ004777 (VT6TFAE or VC6TFAE).
# passaged XEN-like cells = assay: Toxicity to passaged XEN-like cells in stage 2 neural induction medium; assay type: cell-based, mouse; details: 50 μM
# Experimental: For neural induction from passaged XEN-like cells, cells were plated at 50,000-100,000 cells per well of a 6-well plate (with gelatin-coated) in stage 1 medium (day 0). Until passaged cells become 70-80% confluence on day2 or day3, switch the XEN-like cells into stage 2 neural induction medium. After 12-20 days, TauEGFP-positive colonies emerged. Considering that FSK used at high concentration 50 μM was toxic to passaged XEN-like cells at stage 2, a concentration of 10-20 μM in neural induction culture medium on passaged XEN-like cells is preferred.
# CeXEN cells = assay: Toxicity to CeXEN cells in stage 2 neural induction medium; assay type: cell-based, mouse; details: 50 μM
# Experimental: CeXEN (chemically-derived eXEN) cells with TauEGFP reporter were derived from E3.5 blastocysts using stage 1 culture medium as previously reported (Zhao et al., Cell, 163:1678-1691 (2015)). Medium was changed every day and the cells were passaged at 1:20 to 1:30 every 3 days.
# 1. For chemical induction, CeXEN cells were plated at 50,000-100,000 cells per well of a 6-well plate (with gelatin-coated) in stage 1 medium (day 0).
# 2. On day2 or day3 until 70-80% confluence, cells were switched into stage 2 neural induction culture medium for 12-20 days and TauEGFP-positive cells were generated.
# A relatively low initial cell density is beneficial for lineage induction from passaged CeXEN cells since the high proliferation rate of CeXEN cells. Considering that FSK used at high concentration 50 μM was toxic to CeXEN cells at stage 2, a concentration of 10-20 μM in neural induction culture medium on CeXEN cells is preferred.
# XEN-like cells [3] = assay: Stage 2 neural induction of TauEGFP-positive cells from XEN-like cells (FACS); assay type: cell-based, mouse; details: 0.1 μM LDN193189 and 5 μM SB431542 added to FCD; not essential to induce neurons
# Experimental: On day 12, cells were switched into stage 2 neural specification medium. After 8-12 days induction by the stage 2 culture medium, TauEGFP-positive colonies were generated. The TauEGFP-positive colonies were further re-plated to co-culture with primary astrocytes or primary neurons for maturation.
# The induced efficiency of the TauEGFP-positive cells was estimated using a FACS Calibur flow cytometer (Becton Dickinson), and the flow cytometry data were analyzed using FlowJo. For intracellular flow cytometry analyses, single-cell suspensions were stained with antibodies and analyzed using a BD FACSCalibur.
# XEN-like colonies = assay: Long-term passaging and expansion of XEN-like cells; assay type: cell-based, mouse; details: TD114-2 based culture condition; ratio 1:20-30 every 3-4 days
# Excerpt: Day 12 induced)(EN-like colonies (P0) were trypsinized from whole well and re-plated onto gelatin-coated culture plates at a ratio of 1:10-20 in stage 1 medium for the first passage. After the)(EN-like cells at Passage 1 become confluence, passage the cells at a ratio of 1:20-30 every 3-4 days in stage 1 medium. The XEN-like cells can be long term expanded at stage 1 medium for more than 20 passages with lineage specifying potentials.
# For a single primary XEN-like colony passaging, feeder layers of mitomycin C-treated MEFs are needed. Pick up the a single primary XEN-like colony with 1 ml syringe, trypsinize for 5 min, and neutralize with stage 1 culture medium, then pipette up and down to obtain a single-cell suspension. Seed the cell suspension on feeder layers with stage 1 culture medium for further expansion. The subsequent passaging of XEN-like cells can be feeder-free.
# fibroblasts = assay: Stage 1 chemical induction of XEN-like primary colonies from fibroblasts; assay type: cell-based, mouse; details: replacing CHIR99021 with TD114-2 in the seven-compound cocktail; XEN-like state not altered
# Experimental: as §1, with “VC6TFAE). For mouse adult lung fibroblasts (MAFs) induction, 1 μM CH55 and 50 μg/ml Vitamin C (VC) were added enhance the induction efficiency.” for “VC6TFAE).”
# TauEGFP fibroblasts were prepared as previously reported (Li et al., Cell Stem Cell, 17:195-203 (2015)). Fibroblasts were seeded at a density of 30,000-50,000 cells per well of a 6-well plate or 300,000 cells per 100 mm dish (day −1) (Fibroblast medium−DMEM basal medium+10% FBS++beta-Me(0.055 mM)+1% PS). The culture plates or dishes were precoated with 0.1% gelatin.
# The medium was changed to Stage 1 culture medium (Day 0). For stage 1 chemical reprogramming, cells were induced by the culture medium containing 0.5 mM VPA, 2-4 μM TD114-2 or 20 μM CHIR, 10 μM 616452, 10 μM Tranylcypromine, 10-50 μM Forskolin, 0.05 μM AM580 and 5 μM EPZ004777(VT6TFAE or VC6TFAE)) for 12 days. Culture medium was refreshed every 4 days during the inducing period. XEN-like colonies were formed at about day 6-8.
# XEN-like cells [4] = assay: qRT-PCR of neural, fibroblast and XEN genes in the absence of single Stage 2 medium components; assay type: cell-based, mouse; details: genes examined in the absence of the factor; FIG. 1F
molecule,measurement,setting,value
N[C@@H](CCC(=O)O)C(=O)O [Glutamate],membrane currents on focal application,"[1]; 100 μM, focal application",induction of inward membrane currents
"NC(CCCP(=O)(O)O)C(=O)O (stereo not shown) [AP5, 2-amino-5-phosphonovaleric acid]",spontaneous excitatory postsynaptic currents (EPSCs),[1],blocked
"N#Cc1cc2[nH]c(=O)c(=O)[nH]c2cc1[N+](=O)[O-] [CNQX, 6-cyano-1007-nitroquinoxaline-2,3-dione]",spontaneous excitatory postsynaptic currents (EPSCs),[1],blocked
CC(C)(C)c1cc(C(=O)/C=C/c2ccc(C(=O)O)cc2)cc(C(C)(C)C)c1 [CH55],efficiency of generating XEN-like cells from adult fibroblasts,[2],significantly improved
O=C1O[C@H]([C@@H](O)CO)C(O)=C1O [vitamin C],efficiency of generating XEN-like cells from adult fibroblasts,[2],significantly improved
C=C[C@@]1(C)CC(=O)[C@]2(O)[C@@]3(C)[C@@H](O)CCC(C)(C)[C@@H]3[C@H](O)[C@H](OC(C)=O)[C@@]2(C)O1 [Forskolin],toxicity to passaged XEN-like cells at stage 2,passaged XEN-like cells,toxic
same,toxicity to CeXEN cells at stage 2,CeXEN cells,toxic
"c1ccc2c(-c3cnn4cc(-c5ccc(N6CCNCC6)cc5)cnc34)ccnc2c1 [LDN193189, 4-(6-(4-(piperazin-1-yl)phenyl)pyrazolo[1,5-a]pyrimidin-3-yl)quinolone]",effect on neuron induction efficiency in stage 2 medium,XEN-like cells [3],favorable to enhance the induction efficiency
"NC1=N[C@H](O)[C@H]2[C@H]3O[C@]4(O)O[C@@H]([C@@H](O)[C@@]2(N1)[C@@H]4O)[C@]3(O)CO [TTX, tetrodotoxin]","sodium currents (inward currents, voltage-clamp)",[1],blocked
"NC(=O)c1ccc(-c2nc(-c3ccc4c(c3)OCO4)c(-c3ccccn3)[nH]2)cc1 [SB431542, 4-[4-(1,3-benzodioxol-5-yl)-5-(2-pyridinyl)-1H-imidazol-2-yl]benzamide]",effect on neuron induction efficiency in stage 2 medium,XEN-like cells [3],favorable to enhance the induction efficiency
"O=C1NC(=O)C2=C1c1cn(c3ccccc13)CCOCCOCCOCCOCCn1cc2c2ccccc21 [TD114-2, 10,11,13,14,16,17,19,20,22,23-decahydro-9,4:24, 29-dimetheno-1H-dibenzo[n,t] pyrrolo[3,4-q] [1,4,7,10,13,22]-tetraoxadiazacyclotetracosine-31,33(32H) dione]","long term expansion of XEN-like colonies, passages tested",XEN-like colonies,at least 20 passages
same,"yield of the primary colonies, enhancement",fibroblasts,3 fold
B1,"role of the stage 2 medium component for neural-, fibroblast- and XEN-specific gene expression",XEN-like cells [4],important for inducing neuronal mater and functional genes
